# Reference: patent publication US12187742B2 (XRAD Therapeutics, Inc., priority 2018, dated 2025)
# Where a name gives a salt, the structure may show the parent alone.
# Target: ATM (Homo sapiens (Human), UniProt Q13315)
# Test: ATM in Cell Western Assay (pKAP1 in etoposide-treated MCF-7 cells)
# Type: cell-based
# Settings: MCF-7 cells, etoposide 100 μM, 1 hr, pKAP1 readout
# Summary of the method: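 Cells received compounds in a 10-dose, 3-fold series from a 1 μM final top concentration, then 100 μM etoposide, for 1 hr at 37° C. They were then fixed with paraformaldehyde and permeabilized with 0.1% Triton X-100. After immunostaining, plates were scanned on an infrared imager.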
# Chain of ATM (Q13315 whole entry): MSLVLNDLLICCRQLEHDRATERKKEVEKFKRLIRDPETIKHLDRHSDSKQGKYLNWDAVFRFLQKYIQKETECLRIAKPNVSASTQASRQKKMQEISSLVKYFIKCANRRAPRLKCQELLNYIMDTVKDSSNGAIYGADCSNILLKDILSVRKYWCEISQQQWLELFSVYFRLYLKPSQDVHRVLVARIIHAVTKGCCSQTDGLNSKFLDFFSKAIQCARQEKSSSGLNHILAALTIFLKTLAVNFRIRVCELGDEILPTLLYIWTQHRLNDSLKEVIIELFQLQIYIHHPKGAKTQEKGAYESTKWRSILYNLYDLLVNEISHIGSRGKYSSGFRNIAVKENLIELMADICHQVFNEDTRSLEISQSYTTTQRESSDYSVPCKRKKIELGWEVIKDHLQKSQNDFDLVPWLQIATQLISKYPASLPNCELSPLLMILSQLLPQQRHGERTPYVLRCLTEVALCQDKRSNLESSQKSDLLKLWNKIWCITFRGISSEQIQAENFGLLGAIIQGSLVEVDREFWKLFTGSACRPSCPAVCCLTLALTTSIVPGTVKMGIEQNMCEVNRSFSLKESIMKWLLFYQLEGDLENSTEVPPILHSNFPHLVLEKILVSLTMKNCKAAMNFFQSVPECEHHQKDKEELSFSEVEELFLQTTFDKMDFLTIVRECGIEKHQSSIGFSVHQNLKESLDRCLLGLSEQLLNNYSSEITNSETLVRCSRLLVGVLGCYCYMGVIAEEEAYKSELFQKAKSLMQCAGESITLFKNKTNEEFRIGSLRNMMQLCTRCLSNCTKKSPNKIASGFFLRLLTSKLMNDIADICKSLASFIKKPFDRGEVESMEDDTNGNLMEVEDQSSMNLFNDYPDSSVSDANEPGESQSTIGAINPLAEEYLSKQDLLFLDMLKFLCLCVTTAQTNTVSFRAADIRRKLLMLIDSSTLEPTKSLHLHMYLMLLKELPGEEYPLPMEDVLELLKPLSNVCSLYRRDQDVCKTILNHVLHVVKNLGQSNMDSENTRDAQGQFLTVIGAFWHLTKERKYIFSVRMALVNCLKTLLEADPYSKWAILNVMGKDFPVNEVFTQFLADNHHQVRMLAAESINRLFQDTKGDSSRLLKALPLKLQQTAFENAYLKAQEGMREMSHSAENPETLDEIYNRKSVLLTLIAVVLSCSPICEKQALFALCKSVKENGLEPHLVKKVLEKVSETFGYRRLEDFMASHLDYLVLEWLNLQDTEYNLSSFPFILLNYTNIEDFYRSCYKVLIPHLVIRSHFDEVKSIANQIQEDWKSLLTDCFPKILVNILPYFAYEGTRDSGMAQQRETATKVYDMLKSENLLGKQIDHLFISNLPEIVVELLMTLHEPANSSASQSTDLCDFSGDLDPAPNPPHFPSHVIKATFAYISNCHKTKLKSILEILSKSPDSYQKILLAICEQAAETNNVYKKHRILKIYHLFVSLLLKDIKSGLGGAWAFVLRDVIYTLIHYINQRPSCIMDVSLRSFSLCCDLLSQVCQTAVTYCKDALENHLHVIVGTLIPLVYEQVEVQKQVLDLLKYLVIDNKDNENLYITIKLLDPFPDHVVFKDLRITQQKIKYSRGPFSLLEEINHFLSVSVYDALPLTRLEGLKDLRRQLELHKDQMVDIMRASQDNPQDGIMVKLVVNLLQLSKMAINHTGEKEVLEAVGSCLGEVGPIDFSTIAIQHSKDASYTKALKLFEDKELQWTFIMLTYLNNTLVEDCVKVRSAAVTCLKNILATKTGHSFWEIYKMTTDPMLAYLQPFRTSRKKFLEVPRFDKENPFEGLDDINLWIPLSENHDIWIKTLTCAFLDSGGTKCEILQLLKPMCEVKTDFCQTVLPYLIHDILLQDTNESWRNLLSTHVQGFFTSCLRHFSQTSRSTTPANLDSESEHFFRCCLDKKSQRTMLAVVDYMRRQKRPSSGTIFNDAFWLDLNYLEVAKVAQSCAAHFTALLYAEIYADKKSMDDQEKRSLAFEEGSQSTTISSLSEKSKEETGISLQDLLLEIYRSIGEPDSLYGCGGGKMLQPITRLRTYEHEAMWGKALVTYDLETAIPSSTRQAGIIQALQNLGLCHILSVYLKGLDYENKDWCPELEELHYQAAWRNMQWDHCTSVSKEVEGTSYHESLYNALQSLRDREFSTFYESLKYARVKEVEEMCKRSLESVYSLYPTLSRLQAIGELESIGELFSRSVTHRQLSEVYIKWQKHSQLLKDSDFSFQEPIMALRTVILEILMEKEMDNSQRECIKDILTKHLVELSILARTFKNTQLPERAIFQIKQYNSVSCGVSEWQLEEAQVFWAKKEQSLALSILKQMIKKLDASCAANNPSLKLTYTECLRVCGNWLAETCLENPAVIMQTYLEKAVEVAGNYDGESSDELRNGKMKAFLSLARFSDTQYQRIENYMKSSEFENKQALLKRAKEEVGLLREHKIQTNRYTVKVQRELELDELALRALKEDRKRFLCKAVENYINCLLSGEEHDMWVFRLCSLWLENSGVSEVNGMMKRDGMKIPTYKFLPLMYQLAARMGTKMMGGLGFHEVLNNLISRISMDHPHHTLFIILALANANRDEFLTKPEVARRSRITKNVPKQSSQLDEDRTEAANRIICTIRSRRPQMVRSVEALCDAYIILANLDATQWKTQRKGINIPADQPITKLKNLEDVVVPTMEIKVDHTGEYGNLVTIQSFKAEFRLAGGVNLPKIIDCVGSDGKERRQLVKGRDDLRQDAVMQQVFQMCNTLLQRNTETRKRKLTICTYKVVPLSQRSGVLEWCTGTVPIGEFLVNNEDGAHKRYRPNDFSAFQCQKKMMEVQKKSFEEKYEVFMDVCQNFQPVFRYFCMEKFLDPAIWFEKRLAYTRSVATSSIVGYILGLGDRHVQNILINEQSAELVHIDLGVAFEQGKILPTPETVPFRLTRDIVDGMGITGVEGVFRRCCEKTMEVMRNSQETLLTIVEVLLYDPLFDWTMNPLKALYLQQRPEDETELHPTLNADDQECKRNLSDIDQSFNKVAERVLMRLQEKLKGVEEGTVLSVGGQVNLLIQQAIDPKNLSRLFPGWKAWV
row,IC50 [µM],Structure (SMILES)
1,0.001 to 0.1,"CN(C)CCCOc1ncc(-c2ccc3ncc4c(c3c2)C2(CCC2)C(=O)N4C)cc1NS(=O)(=O)c1cncc(C#N)c1 [Example 174, 5-Cyano-N-(2-(3-(dimethylamino)propoxy)-5-(3′-methyl-2′-oxo-2′,3′-dihydrospiro[cyclobulane-1,1′-pyrrolo[2,3-c]quinolin]-8′-yl)pyridin-3-yl)pyridine-3-sulfonamide hydrochloride]"
2,0.001 to 0.1,"CN(C)CCCOc1ncc(-c2ccc3ncc4c(c3c2)C2(CCC2)C(=O)N4C)cc1NS(=O)(=O)CS(C)(=O)=O [Example 274, N-(2-(3-(Dimethylamino)propoxy)-5-(3′-methyl-2′-oxo-2′,3′-dihydrospiro[cyclobutane-1,1′-pyrrolo[2,3-c]quinolin]-8′-yl)pyridin-3-yl)-1-(methylsulfonyl)methanesulfonamide]"
3,0.001 to 0.1,"Cc1cc2ncc3c(c2cc1-c1cnc(N2CC(N(C)C)C2)c(NS(C)(=O)=O)c1)C1(CCC1)C(=O)N3C [Example 335, N-(5-(3′-,7′-Dimethyl-2′-oxo-2′,3′-dihydrospiro[cyclobutane-1,1′-pyrrolo[2,3-c]quinolin]-8′-yl)-2-(3-(dimethylamino)azetidin-1-yl)pyridin-3-yl)methanesulfonamide]"
4,> 0.1,"COc1ncc(-c2ccc3ncc4c(c3c2)C2(CCC2)C(=O)N4C)cc1S(=N)(=O)c1ccccc1 (racemic) [Example 151, rac-8′-(6-Methoxy-5-(phenylsulfonimidoyl)pyridin-3-yl)-3′-methylspiro[cyclobutane-1,1′-pyrrolo[2,3-c]quinolin]-2′(3′H)-one]"
5,0.001 to 0.1,"CN(C)CCCOc1ncc(-c2ccc3ncc4c(c3c2)C2(CCC2)C(=O)N4C)cc1NS(=O)(=O)c1cc[nH]c(=O)c1 [Example 161, N-(2-(3-(Dimethylamino)propoxy)-5-(3′-methyl-2′-oxo-2′,3′-dihydrospiro[cyclobulane-1,1′-pyrrolo[2,3-c]quinolin]-8′-yl)pyridin-3-yl)-2-oxo-1,2-dihydropyridine-4-sulfonamide]"
6,0.001 to 0.1,CN(C)CCCOc1ncc(-c2ccc3ncc4c(c3c2)C2(CC2)C(=O)N4C)cc1NS(=O)(=O)c1cccnc1 [Example 85]
7,> 0.1,"CN1C(=O)C2(CCC2)c2c1cnc1ccc(-c3cnc(OCC(CO)N(C)C)c(NS(C)(=O)=O)c3)cc21 (centres unmarked) [Example 296, N-(2-(2-(dimethylamino)-3-hydroxypropoxy)-5-(3′-methyl-2′-oxo-2′,3′-dihydrospiro[cyclobutane-1,1′-pyrrolo[2,3-c]quinolin]-8′-yl)pyridin-3-yl)methanesulfonamide]"
8,0.001 to 0.1,"CN1C(=O)C2(CCC2)c2c1cnc1cc(F)c(-c3cnc(N4CC(N(C)C)C4)c(NS(=O)(=O)N4CCOCC4)c3)cc21 [Example 312, N-(2-(3-(Dimethylamino)azetidin-1-yl)-5-(7′-fluoro-3′-methyl-2′-oxo-2′,3′-dihydrospiro[cyclobutane-1,1′-pyrrolo[2,3-c]quinolin]-8′-yl)pyridin-3-yl)morpholine-4-sulfonamide hydrochloride]"
9,> 0.1,CN1C(=O)C2(CC2)c2c1cnc1ccc(-c3ccc4[nH]c(=O)ccc4c3)cc21 [Example 40]
10,> 0.1,COc1ncc(-c2ccc3ncc4c(c3c2)C2(CC2)C(=O)N4C)cc1S(=O)(=O)c1ccccc1 [Example 36]
11,0.001 to 0.1,"COCCN(C)C1CN(c2ncc(-c3cc4c5c(cnc4cc3F)N(C)C(=O)C53CCC3)cc2NS(C)(=O)=O)C1 [Example 314, N-(5-(7′-Fluoro-3′-methyl-2′-oxo-2′,3′-dihydrospiro[cyclobutane-1,1′-pyrrolo[2,3-c]quinolin]-8′-yl)-2-(3((2-methoxyethyl)(methyl)amino)azetidin-1-yl)pyridin-3-yl)methanesulfonamide hydrochloride]"
12,0.001 to 0.1,"CNS(=O)(=O)c1cc(-c2ccc3ncc4c(c3c2)C2(CCC2)C(=O)N4C)cnc1OCCCN(C)C [Example 267, 2-(3-(Dimethylamino)propoxy)-N-methyl-5-(3′-methyl-2′-oxo-2′,3′-dihydrospiro[cyclobutane-1,1′-pyrrolo[2,3-c]quinolin]-8′-yl) pyridine-3-sulfonamide]"

# Same assay, conditions: pKAP1 in etoposide-treated MCF-7 cells
row,IC50 [µM],Structure (SMILES)
1,0.001 to 0.1,"CC(C)NCCOc1ncc(-c2cc3c4c(cnc3cc2F)N(C)C(=O)C42CN([C@@H](C)c3ccccc3)C2)cc1NS(C)(=O)=O [Example 493, (S)-N-(5-(7′-Fluoro-3′-methyl-2′-oxo-1-(1-phenylethyl)-2′,3′-dihydrospiro [azetidine-3,1′-pyrrolo[2,3-c]quinolin]-8′-yl)-2-(2-(isopropylamino)ethoxy)pyridin-3-yl)methanesulfonamide]"
2,> 0.1,"CN1C(=O)C2(CCC2)c2c1cnc1cc(F)c(-c3cnc(N4CC(N(C)C)C4)c(NS(=O)(=O)C(F)F)c3)cc21 [Example 341, N-(2-(3-(Dimethylamino)azetidin-1-yl)-5-(7′-fluoro-3′-methyl-2′-oxo-2′,3′-dihydrospiro[cyclobutane-1,1′-pyrrolo[2,3-c]quinolin]-8′-yl)pyridin-3-yl)-1,1′-difluoromethane-sulfonamide formate]"
3,> 0.1,CC(C)NCCOc1ncc(-c2cc3c4c(cnc3cc2F)N(C)C(=O)C42CN([C@H](C)c3ccccc3)C2)cc1NS(C)(=O)=O [Example 494]
4,0.001 to 0.1,"CC(C)NCCOc1ncc(-c2cc3c4c(cnc3cc2F)N(C)C(=O)C42COC2)cc1NS(C)(=O)=O [Example 555, N-(5-(7′-Fluoro-3′-methyl-2′-oxo-2′,3′-dihydrospiro[oxetane-3,1′-pyrrolo[2,3-c]quinolin]-8′-yl)-2-(2-(isopropylamino)ethoxy)pyridin-3-yl)methanesulfonamide hydrochloride]"
5,> 0.1,"CC(C)NCCOc1ncc(-c2cc3c4c(cnc3cc2F)N(C)C(=O)C42CN(c3ccncc3)C2)cc1NS(C)(=O)=O [Example 547, N-(5-(7′-Fluoro-3′-methyl-2′-oxo-1-(pyridin-4-yl)-2′,3′-dihydrospiro [azetidine-3,1′-pyrrolo[2,3-c]quinolin]-8′-yl)-2-(2-(isopropylamino)ethoxy)pyridin-3-yl)methanesulfonamide]"
6,0.001 to 0.1,"CC(C)NCCOc1ncc(-c2cc3c4c(cnc3cc2F)N(C)C(=O)C42CN(C(=O)OC(C)C)C2)cc1NS(C)(=O)=O [Example 514, Isopropyl 7′-fluoro-8′-(6-(2-(isopropylamino)ethoxy)-5-(methylsulfonamido)pyridin-3-yl)-3′-methyl-2′-oxo-2′,3′-dihydrospiro [azetidine-3,1′-pyrrolo[2,3-c]quinoline]-1-carboxylate]"
7,> 0.1,"CC(C)NCCOc1ncc(-c2cc3c(cc2F)ncc2c3[C@]3(C[C@H](c4cc[nH]c(=O)c4)C3)C(=O)N2C)cc1NS(C)(=O)=O [Example 444, cis-N-(5-(7′-fluoro-3′-methyl-2′-oxo-3-(2-oxo-1,2-dihydropyridin-4-yl)-2,3′-dihydrospiro[cyclobulane-1,1′-pyrrolo[2,3-c]quinolin]-8′-yl)-2-(2-(isopropylamino)ethoxy)pyridin-3-yl)methanesulfonamide]"
8,> 0.1,"CC(C)NCCOc1ncc(-c2cc3c4c(cnc3cc2F)N(C)C(=O)C42CN(c3nn[nH]n3)C2)cc1NS(C)(=O)=O [Example 550, N-(5-(7′-Fluoro-3′-methyl-2′-oxo-1-(2H-tetrazol-5-yl)-2′,3′-dihydrospiro [azetidine-3,1′-pyrrolo[2,3-c]quinolin]-8′-yl)-2-(2-(isopropylamino)ethoxy)pyridin-3-yl)methanesulfonamide]"
9,> 0.1,"CC(C)NCCOc1ncc(-c2cc3c4c(cnc3cc2F)N(C)C(=O)C42CN(C(=O)C(C)C)C2)cc1NS(C)(=O)=O [Example 512, N-(5-(7′-Fluoro-1-isobutyryl-3′-methyl-2′-oxo-2′,3′-dihydrospiro[azetidine-3,1′-pyrrolo[2,3-c]quinolin]-8′-yl)-2-(2-(isopropylamino)ethoxy)pyridin-3-yl)methanesulfonamide]"
10,0.001 to 0.1,"CC(C)NCCOc1ncc(-c2cc3c(cc2F)ncc2c3[C@]3(C[C@@H](CN(C)C)C3)C(=O)N2C)cc1NS(C)(=O)=O [Example 453, trans-N-(5-(3-((Dimethylamino)methyl)-7′-fluoro-3′-methyl-2′-oxo-2′,3′-dihydrospiro[cyclobutane-1,1′-pyrrolo[2,3-c]quinolin]-8′-yl)-2-(2-(isopropylamino)ethoxy)pyridin-3-yl)methanesulfonamide]"
11,0.001 to 0.1,"CC(C)NCCOc1ncc(-c2cc3c(cc2F)ncc2c3[C@]3(C[C@@H](OC(C)C)C3)C(=O)N2C)cc1NS(C)(=O)=O [Example 396, trans-N-(5-(7′-Fluoro-3-isopropoxy-3′-methyl-2′-oxo-2′,3′-dihydrospiro[cyclobutane-1,1′-pyrrolo[2,3-c]quinolin]-8′-yl)-2-(2-(isopropylamino)ethoxy)pyridin-3-yl)methanesulfonamide]"
12,0.001 to 0.1,"CC(C)NCCOc1ncc(-c2cc3c4c(cnc3cc2F)N(C)C(=O)C42CN(c3cccc(OC(F)(F)F)c3)C2)cc1NS(C)(=O)=O [Example 542, N-(5-(7′-Fluoro-3′-methyl-2′-oxo-1-(3-(trifluoromethoxy)phenyl)-2′,3′-dihydrospiro[azetidine-3,1′-pyrrolo[2,3-c]quinolin]-8′-yl)-2-(2-(isopropylamino)ethoxy)pyridin-3-yl)methanesulfonamide]"
13,> 0.1,"CC(C)CCN1CC2(C1)C(=O)N(C)c1cnc3cc(F)c(-c4cnc(OCCNC(C)C)c(NS(C)(=O)=O)c4)cc3c12 [Example 492, N-(5-(7′-Fluoro-1-isopentyl-3′-methyl-2′-oxo-2′,3′-dihydrospiro[azetidine-3,1′-pyrrolo[2,3-c]quinolin]-8′-yl)-2-(2-(isopropylamino)ethoxy)pyridin-3-yl)methanesulfonamide]"
14,0.001 to 0.1,"CC(C)NCCOc1ncc(-c2cc3c4c(cnc3cc2F)N(C)C(=O)C42CN(c3cccnc3)C2)cc1NS(C)(=O)=O [Example 548, N-(5-(7′-Fluoro-3′-methyl-2′-oxo-1-(pyridin-3-yl)-2′,3′-dihydrospiro [azetidine-3,1′-pyrrolo[2,3-c]quinolin]-8′-yl)-2-(2-(isopropylamino)ethoxy)pyridin-3-yl)methanesulfonamide hydrochloride]"
